Results as given in PubChem BioAssay (NCI).
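Results reflect a 48-hour exposure of cells in 96-well plates to compound at five concentrations. At the GI50, growth is halved. Definition used: TGI = concentration required for complete inhibition of growth.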

What was measured:
Assay in all cases: inhibition of tumour cell growth, NCI panel, 48 h
MDA-MB-231 breast = system: MDA-MB-231 breast
MALME-3M melanoma = system: MALME-3M melanoma
NCI/ADR-RES ovarian = system: NCI/ADR-RES ovarian
RXF 393 renal = system: RXF 393 renal
SNB-19 CNS = system: SNB-19 CNS
TK-10 renal = system: TK-10 renal
EKVX NSCLC = system: EKVX NSCLC
SK-OV-3 ovarian = system: SK-OV-3 ovarian
ACHN renal = system: ACHN renal
HOP-92 NSCLC = system: HOP-92 NSCLC
SNB-75 CNS = system: SNB-75 CNS
BT-549 breast = system: BT-549 breast
CAKI-1 renal = system: CAKI-1 renal
U251 CNS = system: U251 CNS
SF-295 CNS = system: SF-295 CNS
HCT-15 colon = system: HCT-15 colon
HOP-62 NSCLC = system: HOP-62 NSCLC
NCI-H23 lung = system: NCI-H23 lung
LOX IMVI melanoma = system: LOX IMVI melanoma
OVCAR-4 ovarian = system: OVCAR-4 ovarian
SF-539 CNS = system: SF-539 CNS
OVCAR-5 ovarian = system: OVCAR-5 ovarian
OVCAR-3 ovarian = system: OVCAR-3 ovarian
SW-620 colon = system: SW-620 colon
RPMI-8226 leukemia = system: RPMI-8226 leukemia
A498 renal = system: A498 renal
A549 NSCLC = system: A549 NSCLC
NCI-H522 lung = system: NCI-H522 lung
786-0 renal = system: 786-0 renal
COLO 205 colon = system: COLO 205 colon
M14 melanoma = system: M14 melanoma
SK-MEL-28 melanoma = system: SK-MEL-28 melanoma
SK-MEL-5 melanoma = system: SK-MEL-5 melanoma
K-562 leukemia = system: K-562 leukemia
OVCAR-8 ovarian = system: OVCAR-8 ovarian
PC-3 prostate = system: PC-3 prostate
NCI-H226 lung = system: NCI-H226 lung
HT29 colon = system: HT29 colon
UO-31 renal = system: UO-31 renal
SF-268 CNS = system: SF-268 CNS
UACC-62 melanoma = system: UACC-62 melanoma
UACC-257 melanoma = system: UACC-257 melanoma
HS 578T breast = system: HS 578T breast
DU-145 prostate = system: DU-145 prostate
CCRF-CEM leukemia = system: CCRF-CEM leukemia
HCC-2998 colon = system: HCC-2998 colon
SN12C renal = system: SN12C renal
NCI-H460 lung = system: NCI-H460 lung
MOLT-4 leukemia = system: MOLT-4 leukemia
SR leukemia = system: SR leukemia
MDA-MB-435 = system: MDA-MB-435
MCF7 breast = system: MCF7 breast
KM12 colon = system: KM12 colon
HCT-116 colon = system: HCT-116 colon
IGROV1 ovarian = system: IGROV1 ovarian

## COc1cc(-c2nc3ccc(C)cc3[nH]2)ccc1OCC(=O)N=Nc1c(O)[nH]c2ccc(Cl)cc12
MDA-MB-231 breast
  GI50: 0.438 µM
  TGI: 1.67 µM
MALME-3M melanoma
  GI50: 1.64 µM
  TGI: 3.14 µM
NCI/ADR-RES ovarian
  GI50: > 100 µM
  TGI: > 100 µM
RXF 393 renal
  GI50: 1.59 µM
  TGI: 3.04 µM
SNB-19 CNS
  GI50: 1.91 µM
  TGI: 5.57 µM
TK-10 renal
  GI50: 3.48 µM
  TGI: 9.5 µM
EKVX NSCLC
  GI50: 3.85 µM
  TGI: > 100 µM
SK-OV-3 ovarian
  GI50: 3.44 µM
  TGI: > 100 µM
ACHN renal
  GI50: 3.64 µM
  TGI: > 100 µM
HOP-92 NSCLC
  GI50: 1.91 µM
  TGI: 7.05 µM
SNB-75 CNS
  GI50: 1.43 µM
  TGI: 3.72 µM
BT-549 breast
  GI50: 2.97 µM
  TGI: > 100 µM
CAKI-1 renal
  GI50: 1.43 µM
  TGI: 2.93 µM
U251 CNS
  GI50: 0.418 µM
  TGI: 1.66 µM
SF-295 CNS
  GI50: 1.8 µM
  TGI: 3.36 µM
HCT-15 colon
  GI50: 2.13 µM
  TGI: > 100 µM
HOP-62 NSCLC
  GI50: 2.31 µM
  TGI: 7.02 µM
NCI-H23 lung
  GI50: 2.06 µM
  TGI: 6.18 µM
LOX IMVI melanoma
  GI50: 0.289 µM
  TGI: 1.01 µM
OVCAR-4 ovarian
  GI50: 2.24 µM
  TGI: 4.83 µM
SF-539 CNS
  GI50: 1.63 µM
  TGI: 3.05 µM

## O=C(CNc1cccc(Cl)c1)Nn1c(-c2ccccc2)nc2ccccc2c1=O
OVCAR-5 ovarian
  TGI: 32.8 µM
OVCAR-3 ovarian
  TGI: 21.1 µM
SW-620 colon
  TGI: 7.37 µM
MDA-MB-231 breast
  TGI: 10.8 µM
RPMI-8226 leukemia
  TGI: > 100 µM
A498 renal
  TGI: 43.5 µM
A549 NSCLC
  TGI: 46.4 µM
NCI-H522 lung
  TGI: 2.98 µM
786-0 renal
  TGI: 7.24 µM
COLO 205 colon
  TGI: 20.2 µM
M14 melanoma
  TGI: 6.19 µM
SNB-19 CNS
  TGI: 31.6 µM
EKVX NSCLC
  TGI: 34.4 µM
SK-MEL-28 melanoma
  TGI: 29.9 µM
SK-MEL-5 melanoma
  TGI: 2.88 µM
K-562 leukemia
  TGI: 18.1 µM
OVCAR-8 ovarian
  TGI: > 100 µM
PC-3 prostate
  TGI: 22.9 µM
NCI-H226 lung
  TGI: 35.3 µM
HT29 colon
  TGI: 24.9 µM
UO-31 renal
  TGI: 31 µM
SF-268 CNS
  TGI: 22.9 µM
UACC-62 melanoma
  TGI: 7.83 µM
UACC-257 melanoma
  TGI: 42.2 µM
SK-OV-3 ovarian
  TGI: 23.7 µM
HS 578T breast
  TGI: 65 µM
DU-145 prostate
  TGI: 44.9 µM
ACHN renal
  TGI: 26.5 µM
HOP-92 NSCLC
  TGI: 7.45 µM
SNB-75 CNS
  TGI: 13.8 µM
CCRF-CEM leukemia
  TGI: 8.73 µM
HCC-2998 colon
  TGI: 23.9 µM
BT-549 breast
  TGI: 3.95 µM
SN12C renal
  TGI: 13.6 µM
NCI-H460 lung
  TGI: 29.2 µM
MOLT-4 leukemia
  TGI: 8.62 µM
U251 CNS
  TGI: 3.41 µM
SR leukemia
  TGI: > 100 µM
SF-295 CNS
  TGI: 28.5 µM
HOP-62 NSCLC
  TGI: 30.8 µM
MDA-MB-435
  TGI: 15.2 µM
MCF7 breast
  TGI: 4.32 µM
KM12 colon
  TGI: 24.9 µM
HCT-116 colon
  TGI: 4.07 µM
NCI-H23 lung
  TGI: 8.11 µM
LOX IMVI melanoma
  TGI: 2.74 µM
OVCAR-4 ovarian
  TGI: 19.3 µM
SF-539 CNS
  TGI: 13.6 µM
IGROV1 ovarian
  TGI: 17.9 µM
